Entries after “also recorded” stand apart in the source; their conditions may differ.
How the values were obtained:
honeybee TRPR [1] = experiment: Competitive binding of TRPs to TRPR in Sf21 cells (displacement of TAMRA-TRP2/TAMRA-TRP3); parameters: species or system Apis mellifera
honeybee TRPR [2] = experiment: Competitive binding of TRPs to TRPR in HEK293 cells (displacement of TAMRA-TRP2/TAMRA-TRP3); parameters: species or system Apis mellifera; conditions: for competitive binding (residual TAMRA-TRP binding): HEK293
[3] = tested on: TRP2-mediated cAMP accumulation; experiment: Effect of PTX, CTX, YM-254890 and H89 on TRP2-mediated cAMP accumulation, HEK293 cells expressing TRPR; format: cell-based, Homo sapiens; conditions: TRP2, Control (no inhibitor)

“ALMGFQGVRa [TRP2, honeybee tachykinin-related peptide 2, synthesized by SynPeptide]” was tested, and the competitive binding (honeybee TRPR [1]; Log (M) -4, replicate 1) was 26.6823, the competitive binding (honeybee TRPR [1]; Log (M) -4, replicate 2) was 24.9306 and the competitive binding (honeybee TRPR [1]; Log (M) -4, replicate 3) was 19.6578. For the same substance, the competitive binding (honeybee TRPR [1]; Log (M) -5, replicate 1) was 24.5134, the competitive binding (honeybee TRPR [1]; Log (M) -5, replicate 2) was 25.2301 and the competitive binding (honeybee TRPR [1]; Log (M) -5, replicate 3) was 28.7532. The competitive binding (honeybee TRPR [1]; Log (M) -6, replicate 1) was 31.3191, the competitive binding (honeybee TRPR [1]; Log (M) -6, replicate 2) was 30.3643 and the competitive binding (honeybee TRPR [1]; Log (M) -6, replicate 3) was 34.3614. The competitive binding (honeybee TRPR [1]; Log (M) -7, replicate 1) was 40.7138, the competitive binding (honeybee TRPR [1]; Log (M) -7, replicate 2) was 35.6042 and the competitive binding (honeybee TRPR [1]; Log (M) -7, replicate 3) was 42.4738. It also gave a competitive binding (honeybee TRPR [1]; Log (M) -8, replicate 1) of 59.0125, a competitive binding (honeybee TRPR [1]; Log (M) -8, replicate 2) of 64.4899 and a competitive binding (honeybee TRPR [1]; Log (M) -8, replicate 3) of 60.9813. The competitive binding (honeybee TRPR [1]; Log (M) -9, replicate 1) was 79.5758, the competitive binding (honeybee TRPR [1]; Log (M) -9, replicate 2) was 73.4731 and the competitive binding (honeybee TRPR [1]; Log (M) -9, replicate 3) was 72.5477. The competitive binding (honeybee TRPR [1]; Log (M) -10, replicate 1) was 80.4598, the competitive binding (honeybee TRPR [1]; Log (M) -10, replicate 2) was 86.2073 and the competitive binding (honeybee TRPR [1]; Log (M) -10, replicate 3) was 87.5948. It also gave a competitive binding (honeybee TRPR [1]; Log (M) -11, replicate 1) of 96.7722, a competitive binding (honeybee TRPR [1]; Log (M) -11, replicate 2) of 92.2369 and a competitive binding (honeybee TRPR [1]; Log (M) -11, replicate 3) of 91.4817. The competitive binding (honeybee TRPR [1]; Log (M) -12, replicate 1) was 92.3887, the competitive binding (honeybee TRPR [1]; Log (M) -12, replicate 2) was 98.2368 and the competitive binding (honeybee TRPR [1]; Log (M) -12, replicate 3) was 98.3115. For the same substance, the “competitive binding (residual TAMRA-TRP binding)” value (honeybee TRPR [2]; Log (M) -4, replicate 1) was 6.8655, the “competitive binding (residual TAMRA-TRP binding)” value (honeybee TRPR [2]; Log (M) -4, replicate 2) was 5.4421 and the “competitive binding (residual TAMRA-TRP binding)” value (honeybee TRPR [2]; Log (M) -4, replicate 3) was 6.7148. For the same substance, the “competitive binding (residual TAMRA-TRP binding)” value (honeybee TRPR [2]; Log (M) -5, replicate 1) was 5.4278, the “competitive binding (residual TAMRA-TRP binding)” value (honeybee TRPR [2]; Log (M) -5, replicate 2) was 4.8584 and the “competitive binding (residual TAMRA-TRP binding)” value (honeybee TRPR [2]; Log (M) -5, replicate 3) was 7.2943. For the same substance, the “competitive binding (residual TAMRA-TRP binding)” value (honeybee TRPR [2]; Log (M) -6, replicate 1) was 7.7659, the “competitive binding (residual TAMRA-TRP binding)” value (honeybee TRPR [2]; Log (M) -6, replicate 2) was 5.3036 and the “competitive binding (residual TAMRA-TRP binding)” value (honeybee TRPR [2]; Log (M) -6, replicate 3) was 8.6345. The “competitive binding (residual TAMRA-TRP binding)” value (honeybee TRPR [2]; Log (M) -7, replicate 1) was 18.9281, the “competitive binding (residual TAMRA-TRP binding)” value (honeybee TRPR [2]; Log (M) -7, replicate 2) was 12.1701 and the “competitive binding (residual TAMRA-TRP binding)” value (honeybee TRPR [2]; Log (M) -7, replicate 3) was 11.2282. For the same substance, the “competitive binding (residual TAMRA-TRP binding)” value (honeybee TRPR [2]; Log (M) -8, replicate 1) was 39.3417, the “competitive binding (residual TAMRA-TRP binding)” value (honeybee TRPR [2]; Log (M) -8, replicate 2) was 38.9933 and the “competitive binding (residual TAMRA-TRP binding)” value (honeybee TRPR [2]; Log (M) -8, replicate 3) was 33.9876. The “competitive binding (residual TAMRA-TRP binding)” value (honeybee TRPR [2]; Log (M) -9, replicate 1) was 62.0505, the “competitive binding (residual TAMRA-TRP binding)” value (honeybee TRPR [2]; Log (M) -9, replicate 2) was 61.6487 and the “competitive binding (residual TAMRA-TRP binding)” value (honeybee TRPR [2]; Log (M) -9, replicate 3) was 64.6985. The “competitive binding (residual TAMRA-TRP binding)” value (honeybee TRPR [2]; Log (M) -10, replicate 1) was 72.1434, the “competitive binding (residual TAMRA-TRP binding)” value (honeybee TRPR [2]; Log (M) -10, replicate 2) was 80.3662 and the “competitive binding (residual TAMRA-TRP binding)” value (honeybee TRPR [2]; Log (M) -10, replicate 3) was 73.4408. The “competitive binding (residual TAMRA-TRP binding)” value (honeybee TRPR [2]; Log (M) -11, replicate 1) was 96.7383, the “competitive binding (residual TAMRA-TRP binding)” value (honeybee TRPR [2]; Log (M) -11, replicate 2) was 91.1557 and the “competitive binding (residual TAMRA-TRP binding)” value (honeybee TRPR [2]; Log (M) -11, replicate 3) was 93.6625. The “competitive binding (residual TAMRA-TRP binding)” value (honeybee TRPR [2]; Log (M) -12, replicate 1) was 92.6094, the “competitive binding (residual TAMRA-TRP binding)” value (honeybee TRPR [2]; Log (M) -12, replicate 2) was 98.3333 and the “competitive binding (residual TAMRA-TRP binding)” value (honeybee TRPR [2]; Log (M) -12, replicate 3) was 97.4974. For the same substance, the “affinity of TRPR, TRP2 compared with TRP3” value (honeybee TRPR [2]; competitive binding assays, HEK293 and Sf21 cells) was “stronger binding affinity to the receptor TRPR than TRP3; also recorded: higher for TRP2 than for TRP3; also recorded: higher affinity to TRPR”, the cAMP accumulation ([3]; Suppl.3A, replicate 1) was 9.157 and the cAMP accumulation ([3]; Suppl.3A, replicate 2) was 10.923. It also gave a cAMP accumulation ([3]; Suppl.3A, replicate 3) of 10.206, a cAMP accumulation ([3]; Suppl.3B, replicate 1) of 86.752 and a cAMP accumulation ([3]; Suppl.3B, replicate 2) of 90.385. The cAMP accumulation ([3]; Suppl.3B, replicate 3) was 95.777.

From paper PMC8016481, “Tachykinin signaling inhibits task-specific behavioral responsiveness in honeybee workers” (eLife, 2021)
